Data taken from patent publication US20220378807A1, “DELIVERY OF A COOLING AGENT TO THE PHARYNGEAL-ESOPHAGEAL SURFACE” (priority 2019, published 2022).
≈ marks a conversion by molar mass, not a printed value. Entries after “also recorded” stand apart in the source; their conditions may differ. Where two headings read alike, the source gives them in different places.

What was measured:
[1] = Water solubility of 1-dialkylphosphinoylalkanes; type: physicochemical; settings: R1R2R3P=O, by R1,R2 and R3
[2] = molecular target: T1, cloned hTRPM8 channel (human TRPM8 gene, expressed in CHO cells) (Homo sapiens, UniProt Q7Z2W7); experiment: TRPM8 agonist activity, Fluo-8 calcium FLIPR assay; type: cell-based; settings: for Potency relative to menthol / EC50: p-menthane compounds, Table 8; for EC50: 95% limits printed in line below; for Relative Potency to L-menthol: from TRPM8 EC50, menthol = 1.0
T1 construct: host or cells: CHO cells
Experimental: In the first set of data, the potency and in vitro effects of test compounds were evaluated on cloned hTRPM8 channel (encoded by the human TRPM8 gene, expressed in CHO cells) using a Fluo-8 calcium kit and a Fluorescence Imaging Plate Reader (FLIPR^TETRATM) instrument. […] Test solutions were in HEPES-buffered saline, 384-well plates, and placed into the FLIPR instrument (Molecular Devices Corporation, Union City, Calif., USA). […] The test cells were Chinese Hamster Ovary (CHO) cells stably transfected with human TRPM8 cDNAs. The concentration-response data were analyzed via FLIPR Control software and fitted to a Hill equation for the EC50.

[3] = test system: throat (Adam's apple, jugular notch, upper chest); type: in vivo, human; design: key to Jugular Notch / Sternum: cooling rated on a 0-3 scale; Onset: unit not given here; settings: for Duraton: duration of cooling after swallowing Shaped-Gel; for Discomfort: in vivo; for Onset: onset of cooling after swallowing Shaped-Gel, no unit in head (min); for Jugular Notch: cooling felt at jugular notch
Experimental: Shaped-Gel having total weight of 0.4 to 1.2 g containing 0.4 to 1.5% by weight (5 mg/g to 15 mg/g) are prepared and tested. The following examples illustrate the invention, but are not intended to limit the scope of the present invention. A Shaped-Gel in accordance with the present invention was prepared with the following composition.
Shaped-Gels were prepared by these procedures. First step, the cooling agent was accurately weighed and place in a 60 mL plastic container. Then glycerol, water, and gelatin was added to the container and centrifuged for 2 min in a SpeedMixer (FlackTek, Inc.) at 3000 rpm. Then gelatin powder was added and the mixture centrifuged for 3 min. The container was warmed by placing it in a beaker containing hot water (80-85° C.) for 15 min. The container was then centrifuged for 5 min. The liquid mix was cooled and dispensed onto silicon molds with a plastic dropper, and placed in a refrigerator. After one hour, the gels were solidified, removed from the mold with a plastic tweezer, weighed and placed on wax paper and later stored in blister pockets. […] In preliminary studies, the shape of the Shaped-Gel was varied. Square, rectangular, spherical, hemispherical, toroidal, and pentagram Shaped-Gels were prepared at sizes ranging from 0.4 to 1.2 g. A flat shape wherein the shortest diameter was about 20% of the longest axis was preferred because it could be placed flat on the back of the tongue. A Shaped-Gel shaped as a rectangular prism of 2.75 mm×15 mm×15 mm=0.63 cm3 and weighing ˜0.6 g was acceptable to subjects. A toroid, much like a “LiveSaver” mint was also acceptable if the size was ˜0.8 g. Test Panel: The volunteers for testing the Shaped-Gel were six subjects, four males and two females, aged 50 to 76 years. Each Shaped-Gel was tested for at least four trials in at least three subjects. The concentration of the cooling agent in the Shaped-Gel varied from 0.5 to 2%. The duration of observation for each trial usually lasted for not more than 1.5 hours. Subjects were instructed to swallow the Shaped-Gel with a sip of […] water. Cooling sensations were rated on a scale of 0, 1, 2, 3, at intervals of 3 min, 5 min, and then at 10 min intervals. If a cooling value exceeded 2, the subject noted whether the cooling was felt at the level of the Adam's apple, jugular notch or upper chest. Ancillary effects were also recorded.

[4] = test system: Philtrum Skin; experiment: Cooling on philtrum skin; type: in vivo; settings: p-menthane compounds, Table 8
[5] = test system: Eyelids Surfaces; experiment: Cooling on eyelid surfaces; type: in vivo; settings: p-menthane compounds, Table 8
[6] = test system: Oral Cavity and Pharynx; experiment: Study 2: sensory qualities of compounds applied to oral cavity and pharynx; type: in vivo, human; settings: for sensations produced (cooling intensity, cold discomfort, adverse taste): ~0.8 mL per dose to base of tongue, four volunteers
Experimental: Tests were on four volunteers, with 3 to 5 trials per substance. Compounds were prepared in cherry-flavored Shaped-Gel at 5 mg/mL and administered ˜0.8 mL per dose with a 2 mL plastic vial to the base of the tongue. The subjects asked to rate the sensations for cooling intensity, cold discomfort and adverse taste.

[7] = molecular target: T2, TRPV1 channels (human TRPV1 gene expressed in HEK293 cells) (Homo sapiens, UniProt Q8NER1); settings: data in Yang et al. BMC Ophthalmology 17:101 and Wei US 9,956,232; cited from earlier work
T2 construct: expressed in transfected cells; host or cells: HEK293 cells

[8] = molecular target: T3, TRPA1 channels (human TRPA1 gene expressed in CHO cells) (Homo sapiens, UniProt O75762); settings: data in Yang et al. BMC Ophthalmology 17:101 and Wei US 9,956,232; cited from earlier work
T3 construct: expressed in transfected cells; host or cells: CHO cells

[9] = test system: Oral Cavity and Pharynx; experiment: Study 2: sensory qualities of compounds applied to oral cavity and pharynx; type: in vivo, human

T3 sequence (O75762 whole entry): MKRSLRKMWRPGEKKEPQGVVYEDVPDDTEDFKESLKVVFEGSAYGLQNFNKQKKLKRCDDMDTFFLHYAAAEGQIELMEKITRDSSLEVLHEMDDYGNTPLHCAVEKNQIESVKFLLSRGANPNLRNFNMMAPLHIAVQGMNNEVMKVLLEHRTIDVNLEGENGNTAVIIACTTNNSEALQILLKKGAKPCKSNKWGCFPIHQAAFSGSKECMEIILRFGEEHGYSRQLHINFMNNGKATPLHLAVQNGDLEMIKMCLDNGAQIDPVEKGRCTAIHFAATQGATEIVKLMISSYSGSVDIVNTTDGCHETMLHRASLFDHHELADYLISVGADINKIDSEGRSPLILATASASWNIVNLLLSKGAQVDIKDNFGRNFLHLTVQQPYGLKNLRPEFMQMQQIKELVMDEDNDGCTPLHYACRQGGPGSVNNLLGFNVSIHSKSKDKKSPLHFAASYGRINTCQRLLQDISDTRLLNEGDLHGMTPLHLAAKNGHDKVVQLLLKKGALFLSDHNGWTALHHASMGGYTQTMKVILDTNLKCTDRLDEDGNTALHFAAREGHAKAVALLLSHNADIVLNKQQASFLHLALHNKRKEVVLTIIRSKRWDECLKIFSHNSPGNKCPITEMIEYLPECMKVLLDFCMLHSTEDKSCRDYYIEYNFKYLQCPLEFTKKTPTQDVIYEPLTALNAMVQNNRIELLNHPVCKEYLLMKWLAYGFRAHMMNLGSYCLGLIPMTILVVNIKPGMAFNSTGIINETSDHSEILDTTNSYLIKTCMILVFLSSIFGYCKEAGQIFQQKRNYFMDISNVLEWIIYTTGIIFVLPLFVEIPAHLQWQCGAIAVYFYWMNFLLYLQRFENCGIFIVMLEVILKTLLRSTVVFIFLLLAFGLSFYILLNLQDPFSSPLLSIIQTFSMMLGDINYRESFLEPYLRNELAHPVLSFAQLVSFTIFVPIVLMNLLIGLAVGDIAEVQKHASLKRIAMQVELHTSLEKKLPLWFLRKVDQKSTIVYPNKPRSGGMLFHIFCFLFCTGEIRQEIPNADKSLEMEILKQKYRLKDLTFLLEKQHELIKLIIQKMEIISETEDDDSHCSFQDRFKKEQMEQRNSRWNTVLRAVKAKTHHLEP
T2 sequence (Q8NER1 whole entry): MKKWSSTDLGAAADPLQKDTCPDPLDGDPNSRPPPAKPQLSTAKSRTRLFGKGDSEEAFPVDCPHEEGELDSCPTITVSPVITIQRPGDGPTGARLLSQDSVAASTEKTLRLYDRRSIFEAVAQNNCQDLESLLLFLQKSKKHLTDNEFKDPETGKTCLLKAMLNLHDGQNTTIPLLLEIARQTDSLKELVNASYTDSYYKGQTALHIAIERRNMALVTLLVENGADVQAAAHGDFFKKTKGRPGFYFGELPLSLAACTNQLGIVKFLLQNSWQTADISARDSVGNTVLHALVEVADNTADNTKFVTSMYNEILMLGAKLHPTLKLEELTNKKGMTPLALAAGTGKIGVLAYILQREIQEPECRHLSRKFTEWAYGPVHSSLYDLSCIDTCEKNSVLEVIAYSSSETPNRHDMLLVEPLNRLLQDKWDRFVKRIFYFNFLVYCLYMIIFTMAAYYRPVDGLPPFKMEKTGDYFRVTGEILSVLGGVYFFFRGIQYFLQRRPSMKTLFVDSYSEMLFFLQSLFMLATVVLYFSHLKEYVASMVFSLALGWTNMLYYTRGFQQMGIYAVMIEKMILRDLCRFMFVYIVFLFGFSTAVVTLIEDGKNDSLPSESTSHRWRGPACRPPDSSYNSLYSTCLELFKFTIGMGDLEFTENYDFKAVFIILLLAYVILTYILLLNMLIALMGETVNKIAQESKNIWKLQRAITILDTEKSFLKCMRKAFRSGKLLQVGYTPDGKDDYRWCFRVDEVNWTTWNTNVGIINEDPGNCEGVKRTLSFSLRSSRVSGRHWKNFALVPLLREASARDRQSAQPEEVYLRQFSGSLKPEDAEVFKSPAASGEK
T1 sequence (Q7Z2W7 whole entry): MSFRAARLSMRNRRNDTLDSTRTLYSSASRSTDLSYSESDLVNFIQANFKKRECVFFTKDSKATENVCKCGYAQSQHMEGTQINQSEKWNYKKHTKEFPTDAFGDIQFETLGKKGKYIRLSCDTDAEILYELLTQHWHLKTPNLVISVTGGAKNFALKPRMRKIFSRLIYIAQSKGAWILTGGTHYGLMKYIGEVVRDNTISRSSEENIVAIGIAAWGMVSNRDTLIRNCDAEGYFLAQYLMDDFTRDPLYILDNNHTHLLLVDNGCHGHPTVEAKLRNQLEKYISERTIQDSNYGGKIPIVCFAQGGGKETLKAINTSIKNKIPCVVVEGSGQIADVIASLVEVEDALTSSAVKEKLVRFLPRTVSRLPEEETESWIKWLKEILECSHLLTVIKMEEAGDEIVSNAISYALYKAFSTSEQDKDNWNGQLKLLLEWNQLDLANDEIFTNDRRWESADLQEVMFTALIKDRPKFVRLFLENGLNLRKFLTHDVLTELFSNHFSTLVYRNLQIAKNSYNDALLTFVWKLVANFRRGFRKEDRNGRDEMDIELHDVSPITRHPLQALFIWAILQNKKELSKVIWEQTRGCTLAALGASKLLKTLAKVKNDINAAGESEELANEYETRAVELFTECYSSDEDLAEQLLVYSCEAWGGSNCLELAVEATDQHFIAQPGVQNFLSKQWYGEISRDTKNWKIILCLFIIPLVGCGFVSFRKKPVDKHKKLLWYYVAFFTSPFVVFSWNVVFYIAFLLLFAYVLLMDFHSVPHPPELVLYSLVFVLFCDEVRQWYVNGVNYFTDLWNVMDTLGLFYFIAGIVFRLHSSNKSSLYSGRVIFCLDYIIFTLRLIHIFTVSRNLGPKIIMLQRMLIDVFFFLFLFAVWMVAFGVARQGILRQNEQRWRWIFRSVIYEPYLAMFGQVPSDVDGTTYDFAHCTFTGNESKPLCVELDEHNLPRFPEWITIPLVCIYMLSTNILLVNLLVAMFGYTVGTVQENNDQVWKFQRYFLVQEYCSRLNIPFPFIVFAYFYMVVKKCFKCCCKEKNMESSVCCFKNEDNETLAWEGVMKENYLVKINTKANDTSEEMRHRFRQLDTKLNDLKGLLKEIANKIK

## CCCCCCC[P@@](=O)(C(C)C)C(C)CC (stereo partly drawn) [3,4-7, 1-(Isopropyl-sec-butyl)-phosphinoyl-heptane]
[1]
  solubility: 20 mg/mL (≈ 81.2 mM)

## CC(C)OC(=O)CNC(=O)[C@@H]1C[C@H](C)CC[C@H]1C(C)C [Ax-8]
[2]
  Potency relative to menthol: 7.6
  EC50: 500 nM
[3]
  Duraton: 35 min
  Discomfort: yes
  Onset: 5
[4]
  Philtrum Skin: 27 min
[5]
  Eyelids Surfaces: 300 min

## CCOC(=O)C(C)NC(=O)[C@@H]1C[C@H](C)CC[C@H]1C(C)C (stereo partly drawn) [D-Ala-OEt]
[2]
  Potency relative to menthol: 14.0
[4]
  Philtrum Skin: 103 min
[5]
  Eyelids Surfaces: 180 min

## CC(C)OC(=O)C(C)NC(=O)[C@@H]1C[C@H](C)CC[C@H]1C(C)C (stereo partly drawn) [D-Ala-OiPr]
[2]
  Potency relative to menthol: 14.6
[4]
  Philtrum Skin: 34 min
[5]
  Eyelids Surfaces: 360 min

## CCCCP(=O)(C(C)CC)C(C)CC (stereo not drawn) [DAPA-2-4, 1-Di(sec-butyl)-phosphinoyl-butane]
[2]
  Relative Potency to L-menthol: 0.3

## CCCCCP(=O)(C(C)CC)C(C)CC (stereo not drawn) [DAPA-2-5, 1-di-sec-butyl-phosphorylpentane]
[2]
  Relative Potency to L-menthol: 2.2

## CCCCCCP(=O)(C(C)CC)C(C)CC (stereo not drawn) [DAPA-2-6, 1-Di(sec-butyl)-phosphinoyl-hexane]
[2]
  Relative Potency to L-menthol: 4.7
[6]; 5 mg/mL
  unpleasant taste, description: “metallic”, “organic solvent-like”, and “harsh”
  sensations produced (cooling intensity, cold discomfort, adverse taste): cold, icy cold, and adverse tastes
[3]; cooling felt at Adam's apple, Shaped-Gel
  Adam's Apple: +++ icy
[3]; Shaped-Gel
  Jugular Notch: ++ icy
[3]
  Duraton: 30 min
  Discomfort: yes
  Onset: <3

## CCCCCCCP(=O)(C(C)CC)C(C)CC (stereo not drawn) [DAPA-2-7, 1-Di(sec-butyl)-phosphinoyl-heptane]
[2]
  Relative Potency to L-menthol: 3.4
[6]; 5 mg/mL
  unpleasant taste, description: “metallic”, “organic solvent-like”, and “harsh”
  sensations produced (cooling intensity, cold discomfort, adverse taste): cold, icy cold, and adverse tastes

## CCCCCCCCP(=O)(C(C)CC)C(C)CC (stereo not drawn) [DAPA-2-8, 1-Di(sec-butyl)-phosphinoyl-octane]
[2]
  Relative Potency to L-menthol: 2.9
[6]; 5 mg/mL
  unpleasant taste, description: “metallic”, “organic solvent-like”, and “harsh”

## CCCCCP(=O)(CC(C)C)CC(C)C [DAPA-3-1, 1-di(iso-butyl) phosphinoyl-pentane]
[2]
  TRPM8 potency / bioactivity in words: significant loss of bioactivity
  Relative Potency to L-menthol: 0.2

## CCC(C)P(=O)(CCC(C)C)C(C)CC (stereo not drawn) [DAPA-3-2, 1-Di(sec-butyl)-phosphinoyl-3-methyl-butane]
[2]
  TRPM8 potency / bioactivity in words: significant loss of bioactivity
  Relative Potency to L-menthol: 0.9

## CCCCCP(=O)(C(C)C)C(C)C [DIPA-1-5, 1-Di(isopropyl)-phosphinoyl-pentane]
[2]
  Relative Potency to L-menthol: 0.7

## CCCCCCP(=O)(C(C)C)C(C)C [DIPA-1-6, 1-Di(isopropyl)-phosphinoyl-hexane]
[2]
  Relative Potency to L-menthol: 1.6

## CCCCCCCP(=O)(C(C)C)C(C)C [DIPA-1-7, 1-Di(isopropyl)-phosphinoyl-heptane]
[2]
  Relative Potency to L-menthol: 5.4
[6]; 5 mg/mL
  cold discomfort: icy cold; also recorded: icy pain in the back of the throat
  unpleasant taste, description: “metallic”, “organic solvent-like”, and “harsh”
  sensations produced (cooling intensity, cold discomfort, adverse taste): cold, icy cold, and adverse tastes
[6]; in vivo
  strong metallic taste: present
[7]
  selectivity: TRPM8 versus TRPV1: Selectivity is also seen
[8]
  selectivity: TRPM8 versus TRPA1: Selectivity is also seen

## CCCCCCCCP(=O)(C(C)C)C(C)C [DIPA-1-8, 1-Di(isopropyl)-phosphinoyl-octane]
[2]
  Relative Potency to L-menthol: 5.4
[6]; 5 mg/mL
  unpleasant taste, description: “metallic”, “organic solvent-like”, and “harsh”
  sensations produced (cooling intensity, cold discomfort, adverse taste): cold, icy cold, and adverse tastes
[6]; in vivo
  strong metallic taste: present
[7]
  selectivity: TRPM8 versus TRPV1: Selectivity is also seen
[8]
  selectivity: TRPM8 versus TRPA1: Selectivity is also seen

## CCCCCCCCCP(=O)(C(C)C)C(C)C [DIPA-1-9, 1-Di(isopropyl)-phosphinoyl-nonane]
[2]
  Relative Potency to L-menthol: 4.0
[6]; 5 mg/mL
  sensations produced (cooling intensity, cold discomfort, adverse taste): coolness and cold which was well-tolerated
[6]; in vivo
  general sense of refreshment in the throat, persistence: ≥ 3 h
  strong metallic taste: does not have a strong metallic taste
[3]; Shaped-Gel applied to base of tongue
  onset of sensation of coolness in the throat: 3 min
[3]; both, human
  Discomfort: 0
[3]
  Duraton: ~60 min
  Onset: <3
[7]
  selectivity: TRPM8 versus TRPV1: selective for TRPM8 and not TRPVI and TRPA1
[8]
  selectivity: TRPM8 versus TRPA1: selective for TRPM8 and not TRPVI and TRPA1
[9]; 5, 8 to 15 mg/mL, 0.8 mL per dose
  icy cold, pain or discomfort at increased concentration: no pain or discomfort; also recorded: did not produce icy cold or pain
[9]; optimized concentrations of 5 to 10 mg/mL
  sensation in the oropharynx and esophagus: perfect cool in the oropharynx and esophagus but without cold discomfort

## CCOC(=O)CNC(=O)[C@@H]1C[C@H](C)CC[C@H]1C(C)C [WS-5]
[2]
  Potency relative to menthol: 10.6
  EC50: 360 nM
[3]; both, human
  Discomfort: 0
[3]
  Duraton: 25 min
  Onset: ~3
[4]
  Philtrum Skin: 24 min
[5]
  Eyelids Surfaces: 15 min

## COc1ccc(NC(=O)[C@@H]2C[C@H](C)CC[C@H]2C(C)C)cc1 [WS-12]
[3]; Shaped-Gel
  Jugular Notch: 0
[3]; cooling felt at sternum, Shaped-Gel
  Sternum: 0
[3]
  Duraton: 20 min
  Discomfort: 0
  Onset: 5

## CC1CCC(C(C)C)C(C(=O)OCC(O)CO)C1 (stereo not drawn) [WS-30]
[3]
  Duraton: 25 min
  Discomfort: 0
  Onset: ~3
